Source: patent publication US9561228B2 (Celgene Avilomics Research, Inc., priority 2013, dated 2017)

How the values were obtained:
MEK1 activated ERK1 = target: T1, MEK1 activated ERK1 (Homo sapiens, UniProt P27361); experiment: Omnia continuous-read kinase assay for potency against MEK1 activated ERK1; assay type: biochemical; details: MEK1 activated ERK1, ATP at KM; read-out: ERK1 Omnia WT ATP KM IC50
T1 construct: purchased Millipore (Billerica, Mass.) 14-439-K
Outline: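 Apparent IC50 came from initial reaction slopes (RFU vs time) plotted against log inhibitor with a variable-slope fit. Reactions were started with ERK1 (4 nM final) added to 50 μM ATP, roughly at its appKM, and 10 μM Sox-conjugated ST17 peptide in 20 mM Tris pH 7.5, 5 mM MgCl2. Fluorescence was monitored every 71 seconds.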

[1] = system: A375 cells (malignant melanoma); experiment: Inhibition of cancer cell proliferation, A375 (CellTiterGlo, 72 hours); assay type: cell-based; details: Homo sapiens, A-375
Outline: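 A375 melanoma cells, 3000/well, exposed 72 h at 37 °C to compound in 3-fold serial dilutions (solution added as 2× stock starting at 5,000 nM in serum-free DMEM). CellTiterGlo luminescence converted to cell number via standard curve; % inhibition vs untreated control, GI50 from curve fit.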

[2] = system: HT-29 cells (colorectal adenocarcinoma); experiment: Inhibition of cancer cell proliferation, HT-29 (CellTiterGlo, 72 hours); assay type: cell-based; details: Homo sapiens
Outline: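 HT-29 cells seeded at 3000/well, then treated with 3-fold serial dilutions from a 5,000 nM two-fold solution in serum-free RPMI1640, untreated wells as control, for 72 h at 37° C. CellTiterGlo luminescence converted to cell number via a standard curve; GI50 from percent inhibition versus untreated growth.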

T1 sequence (P27361 whole entry): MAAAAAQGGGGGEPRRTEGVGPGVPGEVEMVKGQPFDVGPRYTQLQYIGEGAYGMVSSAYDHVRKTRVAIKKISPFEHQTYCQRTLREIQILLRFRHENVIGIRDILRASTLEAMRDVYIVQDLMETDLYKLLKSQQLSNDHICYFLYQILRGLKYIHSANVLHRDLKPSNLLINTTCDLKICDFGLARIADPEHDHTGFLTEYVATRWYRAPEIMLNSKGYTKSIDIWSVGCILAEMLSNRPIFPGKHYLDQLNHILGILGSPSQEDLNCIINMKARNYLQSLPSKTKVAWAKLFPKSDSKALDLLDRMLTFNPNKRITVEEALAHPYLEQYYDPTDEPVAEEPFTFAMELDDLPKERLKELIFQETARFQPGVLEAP

Row | Structure (SMILES) | IC50 (MEK1 activated ERK1) | GI50 [1] | GI50 [2]
1 | C=CC(=O)Nc1ccccc1Nc1nc(N[C@H]2CCN(C(C)=O)C2)ncc1C(F)(F)F [Compound I-56, (S)—N-(2-((2-((1-Acetylpyrrolidin-3-yl)amino)-5-(trifluoromethyl)pyrimidin-4-yl)amino)phenyl)acrylamide] | 101 to 500 nM | 101 to 500 nM | 101 to 500 nM
2 | C=CC(=O)Nc1cc(OC)ccc1Nc1nc(Nc2cc(OC)nc(N3CCN(C)CC3)c2)ncc1C(F)(F)F [Compound I-334, N-(5-methoxy-2-((2-((2-methoxy-6-(4-methylpiperazin-1-yl)pyridin-4-yl)amino)-5-(trifluoromethyl)pyrimidin-4-yl)amino)phenyl)acrylamide] | – | < 100 nM | < 100 nM
3 | C=CC(=O)Nc1ccccc1Nc1nc(Nc2cc(OC)cc(OC)c2)ncc1C(F)(F)F [Compound I-338, N-(2-((2-((3,5-dimethoxyphenyl)amino)-5-(trifluoromethyl)pyrimidin-4-yl)amino)phenyl)acrylamide] | 101 to 500 nM | < 100 nM | < 100 nM
4 | C=CC(=O)Nc1cc(OC)ccc1Nc1nc(Nc2cc(OC)ncc2C)ncc1C(F)(F)F [Compound I-284, N-(5-Methoxy-2-((2-((2-methoxy-5-methylpyridin-4-yl)amino)-5-(trifluoromethyl)pyrimidin-4-yl)amino)phenyl)acrylamide] | – | < 100 nM | 501 to 999 nM
5 | C=CC(=O)Nc1cc(C)ccc1Nc1nc(Nc2cc(OC)nc(N3CCN(C(C)=O)CC3)c2)ncc1Cl [Compound I-296, N-(2-((2-((2-(4-acetylpiperazin-1-yl)-6-methoxypyridin-4-yl)amino)-5-chloropyrimidin-4-yl)amino)-5-methylphenyl)acrylamide] | – | < 100 nM | < 100 nM
6 | C=CC(=O)Nc1cc(OC)ccc1Nc1nc(N[C@H]2CCCN(C(=O)CO)C2)ncc1C(F)(F)F [Compound I-64, (S)—N-(2-((2-((1-(2-Hydroxyacetyl)piperidin-3-yl)amino)-5-(trifluoromethyl)pyrimidin-4-yl)amino)-5-methoxyphenyl)acrylamide] | – | < 100 nM | < 100 nM
7 | C=CC(=O)Nc1ccccc1Nc1nc(Nc2ccnc(F)c2)ncc1C(F)(F)F [Compound I-287, N-(2-((2-((2-Fluoropyridin-4-yl)amino)-5-(trifluoromethyl)pyrimidin-4-yl)amino)phenyl)acrylamide] | 101 to 500 nM | – | –
8 | C=CC(=O)Nc1cc(OC)ccc1Nc1nc(Nc2cc(OC)ncc2C)ncc1Cl [Compound I-242, N-(2-((5-chloro-2-((2-methoxy-5-methylpyridin-4-yl)amino)pyrimidin-4-yl)amino)-5-methoxyphenyl)acrylamide] | – | < 100 nM | < 100 nM
9 | C=CC(=O)Nc1cc(C)ccc1Nc1nc(N[C@H]2CCCN(C(=O)CO)C2)ncc1Cl [Compound I-140, (S)—N-(2-((5-chloro-2-((1-(2-hydroxyacetyl)piperidin-3-yl)amino)pyrimidin-4-yl)amino)-5-methylphenyl)acrylamide] | – | < 100 nM | < 100 nM
10 | C=CC(=O)Nc1ccccc1Nc1nc(Nc2cc(F)ccc2C)ncc1C(F)(F)F [Compound I-285, N-(2-((2-((5-Fluoro-2-methylphenyl)amino)-5-(trifluoromethyl)pyrimidin-4-yl)amino)phenyl)acrylamide] | 501 to 999 nM | – | –
11 | C=CC(=O)Nc1cc(OC)ccc1Nc1nc(Nc2cc(OC)nc(N3CCN(C(C)=O)CC3)c2)ncc1C(F)(F)F [Compound I-91, N-(2-((2-((2-(4-Acetylpiperazin-1-yl)-6-methoxypyridin-4-yl)amino)-5-(trifluoromethyl)pyrimidin-4-yl)amino)-5-methoxyphenyl)acrylamide] | – | < 100 nM | < 100 nM
12 | C=CC(=O)Nc1ccccc1Nc1nc(Nc2cc(OC)nc(N3CCCC3)c2)ncc1C(F)(F)F [Compound I-281, N-(2-((2-((2-Methoxy-6-(pyrrolidin-1-yl)pyridin-4-yl)amino)-5-(trifluoromethyl)pyrimidin-4-yl)amino)phenyl)acrylamide] | – | < 100 nM | < 100 nM
13 | C=CC(=O)Nc1ccccc1Nc1nc(Nc2cc(OC)nc(N3CCS(=O)(=O)CC3)c2)ncc1C(F)(F)F [Compound I-291, N-(2-((2-((2-(1,1-Dioxidothiomorpholino)-6-methoxypyridin-4-yl)amino)-5-(trifluoromethyl)pyrimidin-4-yl)amino)phenyl)acrylamide] | – | < 100 nM | < 100 nM
14 | C=CC(=O)Nc1ccccc1Nc1nc(Nc2cc(OC)nc(N3CCN(C)CC3)c2)ncc1C(F)(F)F [Compound I-324, N-(2-((2-((2-methoxy-6-(4-methylpiperazin-1-yl)pyridin-4-yl)amino)-5-(trifluoromethyl)pyrimidin-4-yl)amino)phenyl)acrylamide] | – | < 100 nM | < 100 nM
15 | C=CC(=O)Nc1cc(C)ccc1Nc1nc(Nc2cc(OC)ncc2C)ncc1C(F)(F)F [Compound I-90, N-(2-((2-((2-Methoxy-5-methylpyridin-4-yl)amino)-5-(trifluoromethyl)pyrimidin-4-yl)amino)-5-methylphenyl)acrylamide] | – | 101 to 500 nM | 101 to 500 nM
16 | C=CC(=O)Nc1ccccc1Nc1nc(Nc2cc(OC)nc(OCCOC)c2)ncc1C(F)(F)F [Compound I-283, N-(2-((2-((2-Methoxy-6-(2-methoxyethoxyl)pyridin-4-yl)amino)-5-(trifluoromethyl)pyrimidin-4-yl)amino)phenyl)acrylamide] | – | < 100 nM | < 100 nM
17 | C=CC(=O)Nc1ccccc1Nc1nc(Nc2cc(C(N)=O)ccc2C)ncc1C(F)(F)F [Compound I-68, 3-(4-(2-Acrylamidophenylamino)-5-(trifluoromethyl)pyrimidin-2-ylamino)-4-methylbenzamide] | – | < 100 nM | < 100 nM
18 | C=CC(=O)Nc1cc(C)ccc1Nc1nc(Nc2cc(OC)cc(OC)c2)ncc1C(F)(F)F [Compound I-339, N-(2-((2-((3,5-dimethoxyphenyl)amino)-5-(trifluoromethyl)pyrimidin-4-yl)amino)-5-methylphenyl)acrylamide] | – | < 100 nM | < 100 nM
19 | C=CC(=O)Nc1cc(C)ccc1Nc1nc(Nc2cc(N[C@H]3CC[C@@H](O)CC3)nc(OC)c2)ncc1C(F)(F)F [Compound I-326, N-(2-((2-((2-((cis-4-hydroxycyclohexyl)amino)-6-methoxypyridin-4-yl)amino)-5-(trifluoromethyl)pyrimidin-4-yl)amino)-5-methylphenyl)acrylamide] | 101 to 500 nM | < 100 nM | –
20 | C=CC(=O)Nc1ccccc1Nc1nc(Nc2cc(NCCOC)nc(OC)c2)ncc1C(F)(F)F [Compound I-286, N-(2-((2-((2-Methoxy-6-((2-methoxyethyl)amino)pyridin-4-yl)amino)-5-(trifluoromethyl)pyrimidin-4-yl)amino)phenyl)acrylamide] | – | < 100 nM | < 100 nM
21 | C=CC(=O)Nc1cc(C)ccc1Nc1nc(Nc2ccnc(F)c2)ncc1C(F)(F)F [Compound I-288, N-(2-((2-((2-Fluoropyridin-4-yl)amino)-5-(trifluoromethyl)pyrimidin-4-yl)amino)-5-methylphenyl)acrylamide] | 501 to 999 nM | – | –
22 | C=CC(=O)Nc1cc(F)ccc1Nc1nc(Nc2cc(OC)ncc2C)ncc1C(F)(F)F [Compound I-322, N-(5-fluoro-2-((2-((2-methoxy-5-methylpyridin-4-yl)amino)-5-(trifluoromethyl)pyrimidin-4-yl)amino)phenyl)acrylamide] | – | < 100 nM | 101 to 500 nM
23 | C=CC(=O)Nc1cc(C)ccc1Nc1nc(Nc2cc(OC)nc(N3CC(O)C3)c2)ncc1C(F)(F)F [Compound I-328, N-(2-((2-((2-(3-hydroxyazetidin-1-yl)-6-methoxypyridin-4-yl)amino)-5-(trifluoromethyl)pyrimidin-4-yl)amino)-5-methylphenyl)acrylamide] | – | < 100 nM | < 100 nM
24 | C=CC(=O)Nc1cc(C)ccc1Nc1nc(Nc2cc(OC)ccc2C)ncc1C(F)(F)F [Compound I-341, N-(2-((2-((5-methoxy-2-methylphenyl)amino)-5-(trifluoromethyl)pyrimidin-4-yl)amino)-5-methylphenyl)acrylamide] | 501 to 999 nM | – | –
25 | C=CC(=O)Nc1cc(OC)ccc1Nc1nc(Nc2cc(OC)nc(N3CCN(CC)CC3)c2)ncc1C(F)(F)F [Compound I-88, N-(2-((2-((2-(4-Ethylpiperazin-1-yl)-6-methoxypyridin-4-yl)amino)-5-(trifluoromethyl)pyrimidin-4-yl)amino)-5-methoxyphenyl)acrylamide] | – | < 100 nM | < 100 nM
26 | C=CC(=O)Nc1ccccc1Nc1nc(Nc2cc(OC)nc(OC)c2)ncc1C(F)(F)F [Compound I-95, N-(2-((2-((2,6-Dimethoxypyridin-4-yl)amino)-5-(trifluoromethyl)pyrimidin-4-yl)amino)phenyl)acrylamide] | – | < 100 nM | < 100 nM
27 | C=CC(=O)Nc1ccccc1Nc1nc(Nc2cc(N[C@H]3CC[C@@H](O)CC3)nc(OC)c2)ncc1C(F)(F)F [Compound I-292] | < 100 nM | < 100 nM | –
28 | C=CC(=O)Nc1cc(C)ccc1Nc1nc(Nc2cc(C)nc(OC)c2)ncc1C(F)(F)F [Compound I-295, N-(2-((2-((2-methoxy-6-methylpyridin-4-yl)amino)-5-(trifluoromethyl)pyrimidin-4-yl)amino)-5-methylphenyl)acrylamide] | 101 to 500 nM | – | –
